Test results published in US9546150B2, “Substituted quinazolin-4-ones for inhibiting ubiquitin specific protease 7” (HYBRIGENICS SA, priority 2011, dated 2017).

Assays:
[1] = target: T1, UCH-L1 (Homo sapiens, UniProt P09936); experiment: UCH-L1 activity assay, Ub-AMC substrate; assay type: biochemical; conditions: UbAMC substrate 300 nM, UCH-L1 2.5 nM
T1 sequence (P09936 1-223): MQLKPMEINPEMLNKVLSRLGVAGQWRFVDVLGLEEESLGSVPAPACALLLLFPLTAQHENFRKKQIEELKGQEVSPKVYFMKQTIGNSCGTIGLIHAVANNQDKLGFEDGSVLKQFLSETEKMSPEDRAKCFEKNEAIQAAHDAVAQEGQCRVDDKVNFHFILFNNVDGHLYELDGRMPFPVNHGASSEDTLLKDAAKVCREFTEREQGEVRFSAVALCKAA
Description: UCH-L1 was diluted in USP buffer (50 mM Tris HCl; 0.5 mM EDTA; 5 mM DTT (Dithiothreitol); 0.01% Triton X-100; Bovine Serum Albumin 0.05 mg·ml^−1 pH7.6). Compounds stocks (100 mM) were stored at −20° C. in DMSO. Compounds were tested at different concentrations: from 200 μM to 91 nM.
(§1) Reactions were performed as duplicates in Black 384 well plates (small volume microplates; Greiner; 10 μl final reaction volume). The substrate concentration for UCH-L1 was 300 nM Ub-AMC (Boston Biochem). The concentration of the enzyme (UCH-L1) in specificity assays was 2.5 nM. The concentrations were determined in order to perform specificity assays under initial velocities at fixed substrate concentration. Compounds were pre-incubated with enzymes for 30 minutes at 25° C. Reactions were initiated by addition of substrate to the plates containing the enzymes (+/− compounds) diluted in assay buffer. Reactions were incubated for 60 minutes at 37° C. Reactions were stopped by adding acetic acid (100 mM final). Readings were performed on a Pherastar Fluorescent Reader (BMG). λ Emission 380 nm; λ Excitation=460 nm.

[2] = target: T2, USP8 (Homo sapiens, UniProt P40818); experiment: GST-Ub52-Flag HTRF deubiquitinating enzyme assay, USP8
T2 sequence (P40818 1-1118): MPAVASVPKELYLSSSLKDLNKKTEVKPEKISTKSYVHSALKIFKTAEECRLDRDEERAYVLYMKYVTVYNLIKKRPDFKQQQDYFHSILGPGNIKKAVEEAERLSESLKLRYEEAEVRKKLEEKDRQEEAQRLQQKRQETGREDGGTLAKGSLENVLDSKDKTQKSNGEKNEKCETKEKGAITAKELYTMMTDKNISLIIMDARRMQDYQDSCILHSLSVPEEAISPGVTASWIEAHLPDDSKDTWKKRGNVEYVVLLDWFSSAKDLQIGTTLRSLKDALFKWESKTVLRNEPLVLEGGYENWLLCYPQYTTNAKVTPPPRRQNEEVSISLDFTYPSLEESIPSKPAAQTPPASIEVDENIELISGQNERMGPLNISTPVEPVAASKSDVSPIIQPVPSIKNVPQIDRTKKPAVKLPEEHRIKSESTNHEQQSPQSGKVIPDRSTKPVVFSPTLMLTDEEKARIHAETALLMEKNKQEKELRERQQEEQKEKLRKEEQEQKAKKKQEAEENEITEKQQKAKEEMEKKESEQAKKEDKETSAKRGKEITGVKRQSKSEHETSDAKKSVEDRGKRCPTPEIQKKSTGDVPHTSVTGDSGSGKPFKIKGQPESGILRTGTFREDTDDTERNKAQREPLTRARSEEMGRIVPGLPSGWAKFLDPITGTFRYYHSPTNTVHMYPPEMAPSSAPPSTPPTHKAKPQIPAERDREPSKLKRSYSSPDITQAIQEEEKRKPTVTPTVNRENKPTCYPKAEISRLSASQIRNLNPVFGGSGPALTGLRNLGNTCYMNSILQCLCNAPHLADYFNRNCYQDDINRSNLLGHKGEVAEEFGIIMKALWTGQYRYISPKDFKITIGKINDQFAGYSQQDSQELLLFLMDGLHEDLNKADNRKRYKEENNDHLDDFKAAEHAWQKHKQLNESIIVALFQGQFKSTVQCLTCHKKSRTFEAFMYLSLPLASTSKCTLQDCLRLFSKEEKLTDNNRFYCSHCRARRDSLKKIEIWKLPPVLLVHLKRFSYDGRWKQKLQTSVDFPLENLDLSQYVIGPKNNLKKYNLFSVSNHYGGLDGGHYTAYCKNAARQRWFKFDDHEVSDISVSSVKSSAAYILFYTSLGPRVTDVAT
Description: The cDNA encoding USP8 was obtained by PCR amplification from placenta mRNA. USP8 cDNA was subcloned by PCR into a baculovirus expression vector (pFastBac-HT; Invitrogen). A cDNA encoding a mutated USP8 was generated by mutagenic PCR. […] The sequences were ascertained by sequencing of the entire open reading frame. Bacmids encoding USP8 were generated following DH10bac transposition. The corresponding bacmids were transfected into insect cells (Sf9). Viruses were recovered from culture supernatant and amplified twice. Insect cells (Sf9 or High Five; Invitrogen) were infected for 72 hours. […] Proteins were affinity purified on metal affinity resins (Talon Metal affinity resin; BD Biosciences). Bound materials were extensively washed in wash buffer (50 mM Sodium Phosphate pH 7.0; 300 mM NaCl; 10 mM imidazole; 0.5% Triton X-100; 10% glycerol) and eluted from the resin in 250 mM imidazole-containing wash buffer. Proteins were dialyzed in dialysis buffer (Tris HCl pH 7.6 20 mM; NaCl 200 mM; DTT 1 mM; EDTA 1 mM; 10% Glycerol).
A cDNA encoding the fusion protein between ubiquitin and the ribosomal protein L40 (ub52 or uba52 or ubiquitin-L40) was amplified from human RNA using a proprietary human placenta library. The cDNA was subcloned into a bacterial expression vector (pGEX-2T, GE Healthcare), including an additional flag tag at the carboxyl end of the encoded protein.
For production and purification of recombinant proteins, the plasmid pGEX-2T-Ub52-flag was transformed into E. coli BL21 (Stratagene), grown in LB medium supplemented with 100 mg/ml ampicillin (LB ampi) at 37° C. overnight and then diluted 1/100 in LB ampi. The cells were incubated at 37° C. until an A600=0.6-0.8 was reached. After induction with 0.1 mM isopropyl-β-D-thiogalactopyranoside (IPTG), the culture was incubated at 30° C. for 180 min.
Cells were harvested by centrifugation for 15 min at 7000×g at 4° C. Bacterial pellets were lysed in NETN (Tris HCl pH 8.0; EDTA 1 mM; NP40 0.5%; protease inhibitor cocktail, PMSF 1 mM) and briefly sonicated. Insoluble material was removed by centrifugation 30 min at 14000×g. […] Briefly, soluble fraction was incubated on Glutathione beads pre-equilibrated in NETN buffer+0.5% Milk for 120 min at 4° C. Flow Through was recovered. Beads were extensively washed: the last wash was performed in Tris HCl pH 7.6 20 mM; NaCl 100 mM; MgCl2 12 mM. Elutions were performed using 20 mM Reduced Glutathione in 50 mM Tris HCl pH 8.0, NaCl 120 mM. […] Elutions were dialysed over night at 4° C. in Tris HCl pH 7.6 20 mM; NaCl 50 mM; DTT 0.5 mM.
The use of GST-Ub52-Flag is based on the time-resolved measurement of fluorescence emitted by transfer in homogenous medium.
The assay is carried out on multiwell assay plates. The plates are analyzed on a PHERAstar fluorimeter (BMG) after an overnight incubation at 4° C.
The enzyme reaction is carried out by mixing GST-Ub52-flag solution with 5 μl of USP7 solution (200 pM final) or 5 μl of USP8 (400 pM final). This mixture is incubated for one hour at room temperature on a multiwell assay plate. […] The plate is read after an overnight incubation at 4° C. on a PHERAstar fluorimeter (BMG).
The decrease in the signal correlates with the increase in enzyme activity i.e. the cleavage of GST-Ub52-Flag substrate.
Data (mean values+/−standard deviation) were analyzed as % of control (no compound) and plotted as percentage versus the Log of the compound concentration using GraphPad (Prism).

[3] = target: T2, USP8; experiment: USP8 activity assay, Ub-AMC substrate; assay type: biochemical; parameters: His tag (pFastBac-HT vector); made in house; host or cells: Sf9 or High Five insect cells, baculovirus; conditions: UbAMC substrate 300 nM, USP8 1.36 nM
Description: USP8 was diluted in USP buffer (50 mM Tris HCl; 0.5 mM EDTA; 5 mM DTT; 0.01% Triton X-100; Bovine Serum Albumin 0.05 mg·ml^−1 pH8.8). Compounds stocks (100 mM) were stored at −20° C. in DMSO.
as §1, with “USP8” for “UCH-L1”, “The concentration of the enzyme (UCH-L1) in specificity assays was 2.5 nM.” left out, “nm:” for “nm;”

Structure (SMILES)	IC50 [1]	IC50 [2]	IC50 [3]
O=C(CCc1ccccc1)N1CCC(O)(Cn2cnc3ccccc3c2=O)CC1 [Example 1, 3-{[4-hydroxy-1-(3-phenylpropanoyl)piperidin-4-yl]methyl}-3,4-dihydroquinazolin-4-one]	> 200 µM	> 200 µM	> 200 µM
O=C(CCc1ccccc1)N1CCC(O)(Cn2cnc3cc(Cl)ccc3c2=O)CC1 [Example 2, 7-chloro-3-{[4-hydroxy-1-(3-phenylpropanoyl)piperidin-4-yl]methyl}-3,4-dihydroquinazolin-4-one]	> 200 µM	–	–
O=C(CCC1CCCC1)N1CCC(O)(Cn2cnc3ccccc3c2=O)CC1 [Example 3, 3-{[1-(3-cyclopentylpropanoyl)-4-hydroxypiperidin-4-yl]methyl}-3,4-dihydroquinazolin-4-one]	> 200 µM	> 200 µM	> 200 µM
O=C(CCC1CCCC1)N1CCC(O)(Cn2cnc3cc(Cl)ccc3c2=O)CC1 [Example 4, 7-chloro-3-{[1-(3-cyclopentylpropanoyl)-4-hydroxypiperidin-4-yl]methyl}-3,4-dihydroquinazolin-4-one]	> 200 µM	> 200 µM	> 200 µM
CC(Cc1cccs1)C(=O)N1CCC(O)(Cn2cnc3ccccc3c2=O)CC1 (stereo not shown) [Example 5, 3-({4-hydroxy-1-[2-methyl-3-(thiophen-2-yl)propanoyl]piperidin-4-yl}methyl)-3,4-dihydroquinazolin-4-one]	> 200 µM	> 200 µM	> 200 µM
CC(C)C(=O)N1CCC(O)(Cn2cnc3ccccc3c2=O)CC1 [Example 6, 3-{[4-hydroxy-1-(2-methylpropanoyl)piperidin-4-yl]methyl}-3,4-dihydroquinazolin-4-one]	> 200 µM	> 200 µM	> 200 µM
COc1cc2ncn(CC3(O)CCN(C(=O)C(C)C)CC3)c(=O)c2cc1OC [Example 7, 3-{[4-hydroxy-1-(2-methylpropanoyl)piperidin-4-yl]methyl}-6,7-dimethoxy-3,4-dihydroquinazolin-4-one]	> 200 µM	> 200 µM	> 200 µM
CCC(CC)C(=O)N1CCC(O)(Cn2cnc3cc(Cl)ccc3c2=O)CC1 [Example 9, 7-chloro-3-{[1-(2-ethylbutanoyl)-4-hydroxypiperidin-4-yl]methyl}-3,4-dihydroquinazolin-4-one]	> 200 µM	> 200 µM	> 200 µM
COc1ccccc1CCC(=O)N1CCC(O)(Cn2cnc3ccccc3c2=O)CC1 [Example 10, 3-({4-hydroxy-1-[3-(2-methoxyphenyl)propanoyl]piperidin-4-yl}methyl)-3,4-dihydroquinazolin-4-one]	> 200 µM	> 200 µM	> 200 µM
CC(Cc1cccs1)C(=O)N1CCC(O)(Cn2cnc3cc(Cl)ccc3c2=O)CC1 (stereo not shown) [Example 11, 7-chloro-3-({4-hydroxy-1-[2-methyl-3-(thiophen-2-yl)propanoyl]piperidin-4-yl}methyl)-3,4-dihydroquinazolin-4-one]	> 200 µM	> 200 µM	> 200 µM
O=C(CCc1cccs1)N1CCC(O)(Cn2cnc3ccccc3c2=O)CC1 [Example 12, 3-({4-hydroxy-1-[3-(thiophen-2-yl)propanoyl]piperidin-4-yl}methyl)-3,4-dihydroquinazolin-4-one]	> 200 µM	> 200 µM	> 200 µM
CC(Cc1ccccc1)C(=O)N1CCC(O)(Cn2cnc3ccccc3c2=O)CC1 (stereo not shown) [Example 13, 3-{[1-(2-benzylpropanoyl)-4-hydroxypiperidin-4-yl]methyl}-3,4-dihydroquinazolin-4-one]	> 200 µM	> 200 µM	> 200 µM
CC(Cc1ccccc1)C(=O)N1CCC(O)(Cn2cnc3cc(Cl)ccc3c2=O)CC1 (stereo not shown) [Example 14, 3-{[1-(2-benzylpropanoyl)-4-hydroxypiperidin-4-yl]methyl}-7-chloro-3,4-dihydroquinazolin-4-one]	> 200 µM	> 200 µM	> 200 µM
